The target of the test is T1, M2 muscarinic receptor (Homo sapiens, UniProt P08172).
T1 sequence (P08172 1-466): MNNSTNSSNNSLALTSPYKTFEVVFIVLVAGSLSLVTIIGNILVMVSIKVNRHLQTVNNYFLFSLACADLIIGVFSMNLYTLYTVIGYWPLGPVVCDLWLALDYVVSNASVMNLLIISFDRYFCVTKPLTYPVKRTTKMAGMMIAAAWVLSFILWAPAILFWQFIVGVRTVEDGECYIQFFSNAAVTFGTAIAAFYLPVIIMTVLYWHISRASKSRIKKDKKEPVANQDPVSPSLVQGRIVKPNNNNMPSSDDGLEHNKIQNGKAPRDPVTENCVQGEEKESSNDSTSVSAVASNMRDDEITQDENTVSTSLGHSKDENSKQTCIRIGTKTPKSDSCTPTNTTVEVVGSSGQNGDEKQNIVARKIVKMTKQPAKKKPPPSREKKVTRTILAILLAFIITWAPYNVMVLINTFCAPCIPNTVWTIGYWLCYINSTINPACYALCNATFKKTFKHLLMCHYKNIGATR
In words: accumulation of cAMP at PTX-treated CHO cells expressing M2. Type of test: cell-based. Also on record: host or cells: CHO cells, stably transfected. The settings on record: for change in accumulation of cAMP: PTX-treated M2 CHO cells, forskolin-stimulated and basal, in words. On the procedure:
To exclude the possibility that activation of the non-preferential Gs pathway was obscured by activation of the preferential Gi/o pathway, accumulation of cAMP was measured in CHO cells expressing M2 or M4 receptors where Gi/o G-proteins were inactivated by pertussis toxin (PTX) treatment (FIG. 4).
Cell culture and membrane preparation: Chinese hamster ovary (CHO) cells stably transfected with the genes of individual human variants of muscarinic receptors were purchased from Missouri S&T cDNA Resource Center (Rolla, Mo., USA). Fresh primary cell culture of smooth muscle cells (SMC) from rat aorta prepared as previously described was kindly provided by Dr. Lucie Bačáková. Primary culture of SMCs was grown to confluency in 75 cm^2 flasks in Dulbecco's modified Eagle's medium supplemented with 10% fetal bovine serum. Up to 6-times, 2 million of cells were sub-cultured. […] Cells were grown to confluency in 75 cm^2 flasks in Dulbecco's modified Eagle's medium supplemented with 10% fetal bovine serum and 2 million of cells were subcultured in 100 mm Petri dishes. Medium was supplemented with 5 mM butyrate for the last 24 hours of cultivation to increase receptor expression. When needed, cells were cultivated with pertussis toxin at a final concentration of 25 ng/ml for the 24 hours. Cells were detached by mild trypsinization on day 5 after subculture. Detached cells were washed twice in 50 ml of phosphate-buffered saline and 3 min centrifugation at 250×g. […]
Measurements of the production of cAMP and inositol phosphates: Levels of second messengers cAMP and inositol phosphates were determined in radiochemical chromatography assays as described previously. […] Samples were applied to alumina columns (1.5 g of alumina per column), washed with 2 ml ammonium acetate (pH=7.0) and eluted from columns with 4 ml ammonium acetate and measured by liquid scintillation spectrometry. […] After separation of water and organic phases, 0.6 ml of water phase was applied to Dowex columns (1.5 g of Dowex per column), washed by 20 ml of 60 mM ammonium formate/5 mM sodium borate buffer and eluted from columns with 4 ml of 1M ammonium formate/0.1 formic acid buffer and measured by liquid scintillation spectrometry.
To exclude the possibility that activation of the non-preferential […] pathway was obscured by activation of the preferential Gi/o pathway, accumulation of cAMP was measured in CHO cells expressing M2 or M4 receptors where Gi/o G-proteins were inactivated by pertussis toxin (PTX) treatment (FIG. 11). […]

The text below walks through data of patent US11591323B2, “Muscarinic agonists as non-steroidal and non-opioid analgesics and methods of use thereof” (Barry University, priority 2019, dated 2023).

The structures appear in SMILES notation.

Consider `C[N+](C)(C)CCOC(N)=O` [carbachol, reference compound], for which the “change in accumulation of cAMP” value is reported as “about two-fold increase”. Besides, the “EC50 in PTX treated cells versus non-treated cells” value (M2) is on record as “the same”. Take `C[N+]1(Cc2cccs2)CC=CCC1.[I-]` (stereo not shown) [Compound 7A, 1-methyl-1-[(thiophen-2-yl)methyl]-1,2,3,6-tetrahydropyridin-1-ium iodide]: the “change in accumulation of cAMP” value was “did not change cAMP levels”. Still for that read-out and setting: next, `C1=CCN(Cc2cccs2)CC1.Cl` [Compound 6A, 1-[(thiophen-2-yl)methyl]-1,2,3,6-tetrahydropyridin-1-ium chloride]: “did not change cAMP levels”.
